In patent US11007256B2, “Synthetic lipopeptide vaccines and immunotherapeutics” (The University of Toledo, priority 2016, dated 2021):
Where no end group is shown, it is not given here.

How the values were obtained:
[1] = system: Splenocytes; test: T stimulation assay with IFNγ secreting ELISPOT kit on splenocytes of treated NOD mice; assay type: cell-based, NOD female mice
Description: (FIG. 30.) Further, this system was studied in non-diabetic non-obese diabetic model (NOD). […] These mice were sacrificed and their spleens were collected for performing T stimulation assay using IFNγ secreting ELISPOT kit. […] After 36 hours of incubation, IFNγ secreting cells were looked for.

[2] = system: GAD 546-554 specific CD8 T cell clone (CTL.546L); test: Interferon gamma release of CTL.546L co-cultured with bioconjugate-treated M12C3.B7 APCs; assay type: cell-based, mouse; conditions: compared with free peptide GAD 546-544; M12C3.B7 APCs treated 3 hours, co-culture 24 hours (FIG. 29)
Description: M12C3B7, B cell line, was used as an APC. […] Later, these cells were co-cultured with CTL.546.L (2×10^5 cells/well) for 24 hours. After 24 hours of incubation, supernatants were collected for studying the interferon gamma release.
Co-culture was incubated for 24 hours at 37° C. Supernatants were used to study the IFNγ release.

[3] = system: GAD 546-554 specific CD8 T cell clone; test: Cytokine release of GAD 546-554 specific CD8 T cell clone incubated with APLs and antigen presenting cells; assay type: cell-based, mouse; conditions: CD8 T cell clone incubated with APL and antigen presenting cells
Excerpt: Immune cells protect the human body from foreign antigens. However, in autoimmune diseases like type 1 diabetes (T1D), autoreactive T cells recognize pancreatic beta cell related proteins as antigens, leading to beta cell destruction. An altered peptide ligand (APL) strategy can be used to target autoreactive T cells in T1D. GAD 546-554 (SEQ ID NO: 7) is reported as a dominant epitope recognized by autoreactive T cells, in the non-obese diabetic mouse model, that can cause destruction of beta cells. Nine APLs which have single alanine substitution, at different positions of GAD 546-554 (SEQ ID NO: 7), were screened. When GAD 546-554 (SEQ ID NO: 7) specific CD8 T cell clone was incubated with different APLs and antigen presenting cells, APL9 (SEQ ID NO: 8) inhibited both IFN-γ and TNF-α release. In order to improve antigen presentation and endosomal escape of APL9 (SEQ ID NO: 8), a bioconjugate platform of a liposome containing a Formula I bioconjugate of APL9 (SEQ ID NO: 8) and the toll like receptor ligand, Pam3CysSK4 (“CysSK4” disclosed as SEQ ID NO: 16), as well as antibody against macrophage and dendritic cell protein, F4/80, was developed. This immunotherapy strategy is beneficial to prevent T1D by rendering autoreactive immune cells more tolerant of beta cells. […]

For “bioconjugate GAD 541-554: bioconjugate of GAD 541-554 (GTTMVSYQPLGDKV, SEQ ID NO: 6) (also: bioconjugate moiety, kind and site not given here)”, which “number of IFNγ secreting cells” value ([1]; splenocytes from vehicle treated NOD mice, treated in vitro for 36 hours (FIG. 31)) is on record?
The value was “increase in number of IFNγ secreting cells”.

What about the “number of IFNγ secreting cells” value ([1]; splenocytes of NOD mice primed for three consecutive weeks, then treated with either bioconjugate or bioconjugate with F4/80 for 36 hours) of the same substance?
The value was “increase in number of IFNγ secreting cells”.

Which IFNγ release [2] does the source give for “bioconjugate 546-554: Formula I bioconjugate of GAD 546-554 (SYQPLGDKV, SEQ ID NO: 7) with Pam3CysSK4 (also: Formula I bioconjugate with Pam3CysSK4, attachment site not given here)” here?
The IFNγ release was “significantly lower”.

With SYQPLGDAV [APL9] as the substance, how does the IFN-γ release [3] read?
The IFN-γ release was “inhibited”.

What about the TNF-α release [3] of the same substance?
The TNF-α release was “inhibited”.
